Assay results reported in ChEMBL document CHEMBL3259671, “From virtual to clinical: The discovery of PGN-1531, a novel antagonist of the prostanoid EP4 receptor” (Bioorg Med Chem Lett, 2014).
In brackets after ≈: the same amount, converted by molar mass.

Columns and labels:
[1] = Solubility of the compound in 0.1 M phosphate buffer/[…] KCl at pH 7.4 after 24 hrs; assay type: physicochemical
[2] = Intrinsic clearance in rat hepatocytes; assay type: ADME, cell-based, Hepatocyte; conditions: read-out: CLH
[3] = Bioavailability in rat; assay type: ADME, organism-based; conditions: in vivo
[4] = Permeability across human Caco2 cells; assay type: ADME, cell-based; conditions: Caco-2, read-out: permeability
[5] = Intrinsic clearance in human hepatocytes; assay type: ADME, cell-based, Hepatocyte; conditions: read-out: CLH
[6] = Half life in po dosed rat; assay type: ADME, organism-based; conditions: in vivo

SMILES	solubility at 24 h [1]	also measured
Cc1ccccc1S(=O)(=O)NC(=O)c1cc(CNc2ccc(-c3ccccc3)cc2)c(C)o1	20 µg/mL (≈ 43.4 µM)	–
COc1ccc(-c2ccc(OCc3cc(C(=O)[N-]S(=O)(=O)c4ccccc4C)oc3C)cc2)nc1.[Na+] [BGC-20-1531]	–	CLint scaled [2]: 2.7 mL/min/kg; bioavailability [3]: 84%; Papp [4]: 14.5 ×10⁻⁶ cm/s; CLint scaled [5]: 6.5 mL/min/kg; half-life [6]: 2.3 h
COc1ccc(-c2ccc(OCc3cc(C(=O)NS(=O)(=O)c4ccc(C)cn4)oc3C)cc2)cc1	5 µg/mL (≈ 10.2 µM)	–
Cc1ccccc1S(=O)(=O)NC(=O)c1cc(CNc2ccc(-c3ccc(OC(F)F)cc3)cc2)c(C)o1	20 µg/mL (≈ 38 µM)	–
COc1ccc(-c2ccc(OCc3cc(C(=O)NS(=O)(=O)N(C)C)oc3C)cc2)cc1	10 µg/mL (≈ 22.5 µM)	–
COc1ccc(-c2ccc(OCc3cc(C(=O)NS(=O)(=O)c4ccccc4)oc3C)cc2)c(C)c1	20 µg/mL (≈ 40.7 µM)	–
CCCS(=O)(=O)NC(=O)c1cc(COc2ccc(-c3ccc(OC)cc3)cc2)c(C)o1	7 µg/mL (≈ 15.8 µM)	–
COc1ccc(-c2ccc(OCc3cc(C(=O)NS(=O)(=O)c4ccccc4)oc3C)cc2)cc1	11 µg/mL (≈ 23 µM)	–
COc1ccc(-c2ccc(OCc3cc(C(=O)NS(=O)(=O)c4c(C)noc4C)oc3C)cc2)c(C)c1	200 µg/mL (≈ 392 µM)	–
COc1ccccc1-c1ccc(OCc2cc(C(=O)NS(=O)(=O)c3ccccc3)oc2C)cc1	8 µg/mL (≈ 16.8 µM)	–
Cc1oc(C(=O)NS(=O)(=O)c2ccccc2)cc1COc1ccc(-c2ccccc2)cc1	2 µg/mL (≈ 4.47 µM)	–
Cc1noc(C)c1S(=O)(=O)NC(=O)c1cc(COc2ccc(-c3ccc(OC(F)F)cc3)cc2)c(C)o1	< 0.6 µg/mL	–
COc1ccc(-c2ccc(OCc3cc(C(=O)NS(=O)(=O)c4c(C)noc4C)oc3C)cc2)cc1	0.2 µg/mL (≈ 0.403 µM)	–
COc1ccc(-c2ccc(OCc3cc(C(=O)NS(=O)(=O)c4ccccc4C)oc3C)cc2)nc1 [BGC-20-1531 FREE BASE]	10 µg/mL (≈ 20.3 µM)	–
COc1ccc(-c2ccc(OCc3cc(C(=O)NS(=O)(=O)c4ccccc4)oc3C)cc2)nc1	30 µg/mL (≈ 62.7 µM)	–
Cc1oc(C(=O)NS(=O)(=O)c2ccccc2)cc1CNc1ccc(-c2ccccc2)cc1	300 µg/mL (≈ 672 µM)	–
Cc1oc(C(=O)NS(=O)(=O)c2ccccc2)cc1COc1ccc(-c2ccc(OC(F)F)cc2)cc1	< 0.6 µg/mL	–
COc1ccc(-c2ccc(OCc3cc(C(=O)NS(=O)(=O)c4ccc(CN)cc4)oc3C)cc2)cc1	< 0.6 µg/mL	–
COc1ccc(-c2ccc(OCc3cc(C(=O)NS(=O)(=O)CCCN4CCOCC4)oc3C)cc2)cc1	20 µg/mL (≈ 37.8 µM)	–
COc1ccc(-c2ccc(OCc3cc(C(=O)NS(=O)(=O)c4c(C)noc4C)oc3C)cc2)nc1	90 µg/mL (≈ 181 µM)	–
COc1ccc(-c2ccc(OCc3cc(C(=O)NS(=O)(=O)c4ccc(O)cc4)oc3C)cc2)cc1	20 µg/mL (≈ 40.5 µM)	–
